Assays:
[1] = biological target: corticotropin-releasing factor receptor (rat); assay: Binding affinity to rat CRF receptor assessed as inhibition constant
[2] = Binding affinity to CRF (unknown origin) receptor assessed as inhibition constant

Ki [1] [nM]	Ki [2] [nM]	SMILES
1	–	CCCC(CCC)c1c(CC)nn2c(-c3ccc(Cl)cc3Cl)nc(C)nc12
1.4	–	CCCC(COC)c1c(CC)nn2c(-c3ccc(Cl)cc3Cl)nc(C)nc12 (stereo not given)
2	–	CCCC(COC)c1c(CC)nn2c(-c3cc(OC)c(OC)cc3Cl)nc(C)nc12 (stereo not given)
2.6	–	CCCC(C)c1c(CC)nn2c(-c3cc(OC)c(OC)cc3Cl)nc(C)nc12 (stereo not given)
–	0.7	CCCC(CCC)c1c(CC)nn2c(-c3cc(OC)c(OC)cc3Cl)nc(C)nc12

— BindingDB's records for PubMed 34147747 (n/a, 2021)
